ChEMBL document CHEMBL4804286, “3-amino-4-(4-(4 (dimethylcarbamoyl) phenyl)-1,4-diazepan-1-yl) thieno [2,3-b] pyridine-2-carboxamide for use in cancer therapy and formulations comprising the same” (2020)
Where “and” joins values, the source holds several entries; their conditions need not be identical. Equal values may be shown once. Calls of active or inactive are those of the source. No cut-off for these calls is given here.

What was measured:
[1] = biological target: Ephrin type-A receptor 4 (Homo sapiens) (UniProt P54764); assay: Inhibition of human EPHA4 assessed as percent of control at 2000 nM by KINOMEscan assay relative to control; set-up: scale not given: the % may be the effect or the level left
[2] = biological target: Serine/threonine-protein kinase LATS2 (Homo sapiens) (UniProt Q9NRM7); assay: Inhibition of human LATS2 assessed as percent of control at 2000 nM by KINOMEscan assay relative to control; set-up: scale not given: the % may be the effect or the level left
[3] = biological target: Serine/threonine-protein kinase PAK 4 (Homo sapiens) (UniProt O96013); assay: Inhibition of human PAK4 assessed as percent of control at 2000 nM by KINOMEscan assay relative to control; set-up: scale not given: the % may be the effect or the level left
[4] = biological target: Mitogen-activated protein kinase kinase kinase kinase 2 (Homo sapiens) (UniProt Q12851); assay: Inhibition of human MAP4K2 assessed as percent of control at 2000 nM by KINOMEscan assay relative to control; set-up: scale not given: the % may be the effect or the level left
[5] = biological target: Activin receptor type-1 (Homo sapiens) (UniProt Q04771); assay: Inhibition of human ACVR1 assessed as percent of control at 2000 nM by KINOMEscan assay relative to control; set-up: scale not given: the % may be the effect or the level left
[6] = biological target: 1-phosphatidylinositol 3-phosphate 5-kinase (Homo sapiens) (UniProt Q9Y2I7); assay: Inhibition of human PIKFYVE assessed as percent of control at 2000 nM by KINOMEscan assay relative to control; set-up: scale not given: the % may be the effect or the level left
[7] = biological target: Serine/threonine-protein kinase ICK (Homo sapiens) (UniProt Q9UPZ9); assay: Inhibition of human ICK assessed as percent of control at 2000 nM by KINOMEscan assay relative to control; set-up: scale not given: the % may be the effect or the level left
[8] = biological target: Serine/threonine-protein kinase SIK3 (Homo sapiens) (UniProt Q9Y2K2); assay: Inhibition of human QSK assessed as percent of control at 2000 nM by KINOMEscan assay relative to control; set-up: scale not given: the % may be the effect or the level left
[9] = biological target: Mitogen-activated protein kinase kinase kinase 6 (Homo sapiens) (UniProt O95382); assay: Inhibition of human ASK2 assessed as percent of control at 2000 nM by KINOMEscan assay relative to control; set-up: scale not given: the % may be the effect or the level left
[10] = biological target: Ribosomal protein S6 kinase alpha-6 (Homo sapiens) (UniProt Q9UK32); assay: Inhibition of human N-terminal RSK4 kinase domain 1 assessed as percent of control at 2000 nM by KINOMEscan assay relative to control; set-up: scale not given: the % may be the effect or the level left
[11] = biological target: Testis-specific serine/threonine-protein kinase 1 (Homo sapiens) (UniProt Q9BXA7); assay: Inhibition of human TSSK1B assessed as percent of control at 2000 nM by KINOMEscan assay relative to control; set-up: scale not given: the % may be the effect or the level left
[12] = tested on: Epidermal growth factor receptor (Homo sapiens), P00533 [L858R,T790M]; assay: Inhibition of human EGFR L858R/T790M double mutant assessed as percent of control at 2000 nM by KINOMEscan assay relative to control; set-up: scale not given: the % may be the effect or the level left
[13] = biological target: Protein odd-skipped-related 1 (Homo sapiens) (UniProt Q8TAX0); assay: Inhibition of human OSR1 assessed as percent of control at 2000 nM by KINOMEscan assay relative to control; set-up: scale not given: the % may be the effect or the level left
[14] = biological target: Serine/threonine-protein kinase WNK3 (Homo sapiens) (UniProt Q9BYP7); assay: Inhibition of human WNK3 assessed as percent of control at 2000 nM by KINOMEscan assay relative to control; set-up: scale not given: the % may be the effect or the level left
[15] = biological target: Casein kinase I isoform gamma-2 (Homo sapiens) (UniProt P78368); assay: Inhibition of human CSNK1G2 assessed as percent of control at 2000 nM by KINOMEscan assay relative to control; set-up: scale not given: the % may be the effect or the level left
[16] = biological target: RAC-alpha serine/threonine-protein kinase (Homo sapiens) (UniProt P31749); assay: Inhibition of human AKT1 assessed as percent of control at 2000 nM by KINOMEscan assay relative to control; set-up: scale not given: the % may be the effect or the level left
[17] = biological target: Receptor-interacting serine/threonine-protein kinase 2 (Homo sapiens) (UniProt O43353); assay: Inhibition of human RIPK2 assessed as percent of control at 2000 nM by KINOMEscan assay relative to control; set-up: scale not given: the % may be the effect or the level left
[18] = tested on: Serine/threonine-protein kinase B-raf (Homo sapiens), P15056 [V600E]; assay: Inhibition of human BRAF V600E mutant assessed as percent of control at 2000 nM by KINOMEscan assay relative to control; set-up: scale not given: the % may be the effect or the level left
[19] = biological target: Non-receptor tyrosine-protein kinase TYK2 (Homo sapiens) (UniProt P29597); assay: Inhibition of human TYK2 JH2 pseudokinase domain assessed as percent of control at 2000 nM by KINOMEscan assay relative to control; set-up: scale not given: the % may be the effect or the level left
[20] = tested on: Phosphatidylinositol 4,5-bisphosphate 3-kinase catalytic subunit alpha isoform (Homo sapiens), P42336 [E545A]; assay: Inhibition of human PIK3CA E545A mutant assessed as percent of control at 2000 nM by KINOMEscan assay relative to control; set-up: scale not given: the % may be the effect or the level left
[21] = biological target: Phosphatidylinositol 4,5-bisphosphate 3-kinase catalytic subunit gamma isoform (Homo sapiens) (UniProt P48736); assay: Inhibition of human PIK3CG assessed as percent of control at 2000 nM by KINOMEscan assay relative to control; set-up: scale not given: the % may be the effect or the level left
[22] = biological target: Serine/threonine-protein kinase Sgk1 (Homo sapiens) (UniProt O00141); assay: Inhibition of human SGK assessed as percent of control at 2000 nM by KINOMEscan assay relative to control; set-up: scale not given: the % may be the effect or the level left
[23] = tested on: Receptor-type tyrosine-protein kinase FLT3 (Homo sapiens), P36888 [D835V]; assay: Inhibition of human FLT3 D835V mutant assessed as percent of control at 2000 nM by KINOMEscan assay relative to control; set-up: scale not given: the % may be the effect or the level left; conditions: INHIBITOR
[24] = biological target: Myosin-IIIb (Homo sapiens) (UniProt Q8WXR4); assay: Inhibition of human MYO3B assessed as percent of control at 2000 nM by KINOMEscan assay relative to control; set-up: scale not given: the % may be the effect or the level left
[25] = biological target: MAP/microtubule affinity-regulating kinase 4 (Homo sapiens) (UniProt Q96L34); assay: Inhibition of human MARK4 assessed as percent of control at 2000 nM by KINOMEscan assay relative to control; set-up: scale not given: the % may be the effect or the level left
[26] = biological target: Proto-oncogene tyrosine-protein kinase Src (Homo sapiens) (UniProt P12931); assay: Inhibition of human SRC assessed as percent of control at 2000 nM by KINOMEscan assay relative to control; set-up: scale not given: the % may be the effect or the level left
[27] = biological target: Casein kinase I isoform alpha (Homo sapiens) (UniProt P48729); assay: Inhibition of human CSNK1A1 assessed as percent of control at 2000 nM by KINOMEscan assay relative to control; set-up: scale not given: the % may be the effect or the level left; conditions: INHIBITOR
[28] = biological target: Serine/threonine-protein kinase MARK2 (Homo sapiens) (UniProt Q7KZI7); assay: Inhibition of human MARK2 assessed as percent of control at 2000 nM by KINOMEscan assay relative to control; set-up: scale not given: the % may be the effect or the level left
[29] = biological target: Dual specificity mitogen-activated protein kinase kinase 2 (Homo sapiens) (UniProt P36507); assay: Inhibition of human MEK2 assessed as percent of control at 2000 nM by KINOMEscan assay relative to control; set-up: scale not given: the % may be the effect or the level left
[30] = tested on: Myc-CaP; assay: Inhibition of colony formation in murine castration-resistant Myc-CaP cells at 1 uM by clonogenic assay; format: functional; conditions: Mus musculus
[31] = biological target: Cyclin-dependent kinase 11A (Homo sapiens) (UniProt Q9UQ88); assay: Inhibition of human CDC2L2 assessed as percent of control at 2000 nM by KINOMEscan assay relative to control; set-up: scale not given: the % may be the effect or the level left
Sequence of Cyclin-dependent kinase 11A (Homo sapiens) (Q9UQ88 whole entry): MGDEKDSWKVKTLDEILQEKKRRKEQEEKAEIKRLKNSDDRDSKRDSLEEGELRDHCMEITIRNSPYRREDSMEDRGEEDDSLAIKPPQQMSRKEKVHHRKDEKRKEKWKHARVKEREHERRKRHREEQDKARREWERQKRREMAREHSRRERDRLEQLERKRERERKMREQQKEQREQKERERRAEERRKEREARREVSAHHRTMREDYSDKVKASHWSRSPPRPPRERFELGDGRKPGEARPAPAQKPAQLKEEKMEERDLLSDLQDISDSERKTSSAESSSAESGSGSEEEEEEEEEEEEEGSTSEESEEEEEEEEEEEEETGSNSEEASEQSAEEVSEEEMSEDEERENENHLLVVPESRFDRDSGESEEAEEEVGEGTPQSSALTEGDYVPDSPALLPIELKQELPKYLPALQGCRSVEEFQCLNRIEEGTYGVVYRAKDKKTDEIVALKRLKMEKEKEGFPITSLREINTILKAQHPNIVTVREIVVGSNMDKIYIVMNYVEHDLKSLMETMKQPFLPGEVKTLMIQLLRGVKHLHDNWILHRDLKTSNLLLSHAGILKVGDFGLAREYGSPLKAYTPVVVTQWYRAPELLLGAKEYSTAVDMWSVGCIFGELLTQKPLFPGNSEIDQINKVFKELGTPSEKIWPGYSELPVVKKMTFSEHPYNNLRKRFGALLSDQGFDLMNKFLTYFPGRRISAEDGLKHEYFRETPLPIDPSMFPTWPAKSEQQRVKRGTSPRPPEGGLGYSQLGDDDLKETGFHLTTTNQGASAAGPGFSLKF

Sequence of Dual specificity mitogen-activated protein kinase kinase 2 (Homo sapiens) (P36507 whole entry): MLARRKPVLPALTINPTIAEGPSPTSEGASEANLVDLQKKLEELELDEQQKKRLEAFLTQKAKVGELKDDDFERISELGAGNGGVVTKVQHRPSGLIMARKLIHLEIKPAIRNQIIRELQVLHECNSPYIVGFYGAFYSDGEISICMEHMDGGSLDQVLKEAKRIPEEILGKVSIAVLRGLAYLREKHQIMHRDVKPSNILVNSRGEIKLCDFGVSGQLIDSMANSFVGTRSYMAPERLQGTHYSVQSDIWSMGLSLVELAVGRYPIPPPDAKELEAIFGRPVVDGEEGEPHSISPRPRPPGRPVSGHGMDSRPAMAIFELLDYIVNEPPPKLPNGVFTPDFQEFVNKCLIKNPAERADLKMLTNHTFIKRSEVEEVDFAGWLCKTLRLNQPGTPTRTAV
Sequence of Ephrin type-A receptor 4 (Homo sapiens) (P54764 whole entry): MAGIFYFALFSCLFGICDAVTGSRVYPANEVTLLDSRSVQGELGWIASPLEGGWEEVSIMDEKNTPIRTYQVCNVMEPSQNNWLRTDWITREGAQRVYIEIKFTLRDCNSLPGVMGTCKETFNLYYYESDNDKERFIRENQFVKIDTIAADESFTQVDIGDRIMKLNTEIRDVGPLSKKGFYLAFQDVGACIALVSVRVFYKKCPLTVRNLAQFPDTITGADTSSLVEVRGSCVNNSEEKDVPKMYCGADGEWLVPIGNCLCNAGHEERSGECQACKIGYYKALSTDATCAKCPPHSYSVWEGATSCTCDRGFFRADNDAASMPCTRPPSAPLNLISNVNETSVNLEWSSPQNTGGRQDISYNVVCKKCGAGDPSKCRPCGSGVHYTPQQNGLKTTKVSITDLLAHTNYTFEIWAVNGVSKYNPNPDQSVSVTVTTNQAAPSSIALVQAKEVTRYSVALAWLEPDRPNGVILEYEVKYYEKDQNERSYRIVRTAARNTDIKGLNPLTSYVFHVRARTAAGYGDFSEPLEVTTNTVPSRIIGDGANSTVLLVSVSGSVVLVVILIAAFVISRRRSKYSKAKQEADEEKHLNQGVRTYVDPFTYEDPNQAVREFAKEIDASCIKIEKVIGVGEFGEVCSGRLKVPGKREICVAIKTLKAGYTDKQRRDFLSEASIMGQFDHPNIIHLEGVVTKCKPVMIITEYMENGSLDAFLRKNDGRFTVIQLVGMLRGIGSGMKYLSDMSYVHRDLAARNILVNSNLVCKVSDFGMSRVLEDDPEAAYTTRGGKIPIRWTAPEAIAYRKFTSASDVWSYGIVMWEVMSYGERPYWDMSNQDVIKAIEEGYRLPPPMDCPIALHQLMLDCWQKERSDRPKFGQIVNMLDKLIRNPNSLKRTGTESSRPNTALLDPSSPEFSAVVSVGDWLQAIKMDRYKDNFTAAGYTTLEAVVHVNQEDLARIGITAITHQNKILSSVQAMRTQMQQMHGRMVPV
Sequence of Receptor-interacting serine/threonine-protein kinase 2 (Homo sapiens) (O43353 whole entry): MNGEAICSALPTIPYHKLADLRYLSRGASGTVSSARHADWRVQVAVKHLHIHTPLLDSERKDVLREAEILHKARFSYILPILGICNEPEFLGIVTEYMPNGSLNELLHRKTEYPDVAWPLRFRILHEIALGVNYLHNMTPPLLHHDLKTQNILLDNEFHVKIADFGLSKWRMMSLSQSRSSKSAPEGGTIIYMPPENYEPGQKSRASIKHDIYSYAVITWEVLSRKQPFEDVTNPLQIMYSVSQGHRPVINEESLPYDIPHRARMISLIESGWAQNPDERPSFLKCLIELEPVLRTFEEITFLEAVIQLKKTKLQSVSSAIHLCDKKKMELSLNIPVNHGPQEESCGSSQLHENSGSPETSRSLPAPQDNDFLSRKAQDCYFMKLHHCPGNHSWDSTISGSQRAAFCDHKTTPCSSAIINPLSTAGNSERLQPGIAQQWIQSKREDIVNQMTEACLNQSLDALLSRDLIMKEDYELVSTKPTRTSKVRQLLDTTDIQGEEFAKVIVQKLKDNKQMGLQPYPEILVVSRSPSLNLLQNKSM
Sequence of MAP/microtubule affinity-regulating kinase 4 (Homo sapiens) (Q96L34 whole entry): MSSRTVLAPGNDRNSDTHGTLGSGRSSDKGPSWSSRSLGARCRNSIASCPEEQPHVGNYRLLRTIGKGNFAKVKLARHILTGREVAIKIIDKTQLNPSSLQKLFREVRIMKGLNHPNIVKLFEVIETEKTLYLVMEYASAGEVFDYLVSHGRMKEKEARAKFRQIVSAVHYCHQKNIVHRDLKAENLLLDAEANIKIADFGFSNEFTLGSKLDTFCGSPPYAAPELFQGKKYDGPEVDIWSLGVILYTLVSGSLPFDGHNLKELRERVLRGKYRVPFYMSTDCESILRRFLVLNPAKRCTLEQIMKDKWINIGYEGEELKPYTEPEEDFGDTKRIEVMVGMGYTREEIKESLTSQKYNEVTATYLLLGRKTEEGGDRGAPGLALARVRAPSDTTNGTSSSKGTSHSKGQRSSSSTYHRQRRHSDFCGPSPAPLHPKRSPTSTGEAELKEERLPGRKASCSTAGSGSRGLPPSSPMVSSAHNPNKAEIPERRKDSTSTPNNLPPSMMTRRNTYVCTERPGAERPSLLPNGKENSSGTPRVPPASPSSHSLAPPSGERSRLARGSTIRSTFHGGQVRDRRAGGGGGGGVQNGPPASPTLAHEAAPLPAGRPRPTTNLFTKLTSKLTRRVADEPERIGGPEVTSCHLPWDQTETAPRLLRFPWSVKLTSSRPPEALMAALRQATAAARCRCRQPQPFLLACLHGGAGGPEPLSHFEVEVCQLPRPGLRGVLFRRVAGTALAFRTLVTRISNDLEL
Sequence of Casein kinase I isoform gamma-2 (Homo sapiens) (P78368 whole entry, looked up, canonical isoform): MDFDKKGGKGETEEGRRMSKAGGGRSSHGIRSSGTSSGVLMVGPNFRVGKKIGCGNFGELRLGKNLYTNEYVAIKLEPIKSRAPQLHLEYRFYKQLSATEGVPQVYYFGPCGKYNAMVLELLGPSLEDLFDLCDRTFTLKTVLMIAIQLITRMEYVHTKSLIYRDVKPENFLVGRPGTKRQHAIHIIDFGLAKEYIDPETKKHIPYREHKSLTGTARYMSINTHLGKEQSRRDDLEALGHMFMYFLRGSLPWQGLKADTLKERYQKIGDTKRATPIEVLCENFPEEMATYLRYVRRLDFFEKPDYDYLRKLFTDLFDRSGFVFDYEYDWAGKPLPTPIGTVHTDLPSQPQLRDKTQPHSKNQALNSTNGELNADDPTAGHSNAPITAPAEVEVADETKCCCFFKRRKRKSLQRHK
Sequence of Mitogen-activated protein kinase kinase kinase kinase 2 (Homo sapiens) (Q12851 whole entry): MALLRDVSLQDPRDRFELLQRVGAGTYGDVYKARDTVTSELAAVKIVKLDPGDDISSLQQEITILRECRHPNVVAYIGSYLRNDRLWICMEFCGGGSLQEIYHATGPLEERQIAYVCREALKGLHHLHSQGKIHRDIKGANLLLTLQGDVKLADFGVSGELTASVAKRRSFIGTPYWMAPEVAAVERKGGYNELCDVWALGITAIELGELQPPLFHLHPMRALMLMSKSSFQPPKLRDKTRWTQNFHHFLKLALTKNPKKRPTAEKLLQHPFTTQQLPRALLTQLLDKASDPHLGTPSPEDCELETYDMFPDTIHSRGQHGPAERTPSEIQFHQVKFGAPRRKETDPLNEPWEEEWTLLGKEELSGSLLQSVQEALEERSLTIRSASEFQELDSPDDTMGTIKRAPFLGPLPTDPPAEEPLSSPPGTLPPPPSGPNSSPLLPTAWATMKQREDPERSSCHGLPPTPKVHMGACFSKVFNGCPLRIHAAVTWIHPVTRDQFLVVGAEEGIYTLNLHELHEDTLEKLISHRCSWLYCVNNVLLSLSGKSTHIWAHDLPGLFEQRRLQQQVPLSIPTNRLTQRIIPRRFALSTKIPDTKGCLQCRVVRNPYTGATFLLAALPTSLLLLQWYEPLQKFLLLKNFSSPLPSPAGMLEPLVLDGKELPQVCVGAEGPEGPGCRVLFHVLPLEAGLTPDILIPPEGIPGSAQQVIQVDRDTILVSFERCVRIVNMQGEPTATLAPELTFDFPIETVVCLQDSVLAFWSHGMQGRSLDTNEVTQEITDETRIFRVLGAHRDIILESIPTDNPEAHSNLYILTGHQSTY
Sequence of Casein kinase I isoform alpha (Homo sapiens) (P48729 2-337 limits assumed): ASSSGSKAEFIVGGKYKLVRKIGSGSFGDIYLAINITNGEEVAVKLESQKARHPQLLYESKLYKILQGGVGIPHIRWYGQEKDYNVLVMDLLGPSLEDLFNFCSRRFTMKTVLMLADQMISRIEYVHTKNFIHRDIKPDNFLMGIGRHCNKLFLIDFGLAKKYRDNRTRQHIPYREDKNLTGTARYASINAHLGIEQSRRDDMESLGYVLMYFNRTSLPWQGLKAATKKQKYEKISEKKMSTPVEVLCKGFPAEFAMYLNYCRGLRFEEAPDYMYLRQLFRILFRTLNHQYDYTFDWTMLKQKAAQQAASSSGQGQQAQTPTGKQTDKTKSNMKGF

For CN(C)C(=O)c1ccc(N2CCCN(c3ccnc4sc(C(N)=O)c(N)c34)CC2)cc1, the Activity [1] was 100%, the Activity [2] was 94% and the Activity ([2]; INHIBITOR) was 31%. For the same compound, the Activity [3] was 87% and 100%, the Activity [4] was 84% and 66% and the Activity [5] was 100%. The Activity [6] was 91% and 98%, the Activity [7] was 84% and 66% and the Activity [8] was 89% and 97%. The Activity [9] was 90% and 88%, the Activity [10] was 78% and 80% and the Activity [11] was 80% and 99%. The Activity [12] was 100% and 87%, the Activity [13] was 100% and 88% and the Activity [14] was 97% and 100%. For the same compound, the Activity [15] was 77% and 69%, the Activity [16] was 100% and the Activity [17] was 100% and 93%. The Activity [18] was 100% and 84%, the Activity [19] was 73% and 59% and the Activity [20] was 100% and 92%. The Activity [21] was 79% and 76%, the Activity [22] was 86% and 83% and the Activity [23] was 33% and 14%. The Activity [24] was 87% and 100%, the Activity [25] was 100% and 98% and the Activity [26] was 100% and 96%. For the same compound, the Activity [27] was 33% and 12%, the Activity [28] was 100% and 96% and the Activity [29] was 88% and 82%. The inhibition [30] was “Active” and the Activity [31] was 100%.
